Results as given in PubChem BioAssay AID1919008 (Molecular Pharmacology Branch, DTP, NCI, 2023).

System: DMS-114 complex spheroids with HUVEC/MSC, growth % test/control
Assay: Anticancer human tumor DMS-114 cell line growth inhibition [AhR];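 note: spheroids exposed to agents for 7 days before readout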;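 for viability, T/C: 100% = DMSO vehicle control wells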
Conditions: for IC50: curve of first compound; for viability, T/C: stronger effect = lower value
Text: Multicellular complex tumor spheroid response to aryl hydrocarbon receptor antagonists in combination with a variety of drugs and investigational agents in selected tumor cell lines
The current study was undertaken to assess response to aryl hydrocarbon receptor antagonists in combination with standard-of-care drugs and investigational agents in solid tumor complex spheroid models. Complex spheroids include a stromal component modeled by human endothelial cells (HUVEC) and fibroblasts modeled by human mesenchymal stem cells (MSCs). The concentration ranges selected for each drug and investigational agent were based upon clinically achievable concentrations if the clinical Cmax of the agent was known.
Compounds. The drugs and investigational agents: BAY 2416964 (NSC825713), GNF351 (NSC835774), CH-223191 (NSC835775), CPI-455 (NSC825282), aza-TdCyd (NSC777586), decitabine (NSC127716), belinostat (NSC758774), entinostat (NSC756642), pevonedistat (NSC761192), tazemetostat (NSC777109), talazoparib (NSC765396), olaparib (NSC753686), selinexor (NSC780203), nedisertib (M3814, NSC802822), bortezomib (NSC756655), venetoclax (NSC766270), doxorubicin (NSC123127), elimusertib (BAY189344, NSC800525), ceralasertib (AZD6738, NSC777638), TAK-243 (NSC785004), alisertib (NSC759677), etoposide (NSC141540), topotecan (NSC609699), eribulin (NSC707389), gemcitabine (NSC613327), carboplatin (NSC241240), cisplatin (NSC119875), and SN-38 (NSC673596) were obtained from the National Cancer Institute (NCI) Developmental Therapeutics Program Chemical Repository (32). The FDA-approved anticancer drug set is available from the Developmental Therapeutics Program at https://dtp.cancer.gov/organization/dscb/obtaining/available plates.htm. […] The stock solutions were prepared in dimethyl sulfoxide (DMSO, Sigma-Aldrich, St. Louis, MO, cat. D2650), except for the platinum compounds which were prepared in saline (Quality Biological, Gaithersburg, MD, cat. 114-055-101), at 800-fold the tested concentration and stored at -70 degrees C prior to their use. All drugs and investigational agents were tested over a range starting from a high concentration at or near the clinical Cmax and decreasing in half-log increments. If the clinical Cmax for an agent had not been determined, the highest concentration tested was 10 microM (Table 1).
Cell Culture. All cells were maintained in an incubator at 37 degrees C and 5% CO2 with 95% humidity. The PDC lines were cultured according to standard operating procedures established by the NCI PDMR (https://pdmr.cancer.gov). Briefly, all PDCs were thawed and cultured in Matrigel-coated flasks prepared with a working solution of 1X Ham's F-12 nutrient mix, without supplementation (Invitrogen, Waltham, MA, cat. 11765054), 100 U/mL penicillin-streptomycin (Invitrogen, cat. 15140122), and 2.5% Matrigel (Corning Inc., Corning, NY, cat. 354248) for the first three passages. All PDCs were cultured in complete DMEM/F-12 media containing advanced DMEM/F-12 (Invitrogen, cat. 12634028), 4.9% defined fetal bovine serum, heat inactivated (HyClone Laboratories Inc., Logan, UT, cat. SH30070.03HI), 389 ng/mL hydrocortisone (Sigma-Aldrich, cat. H4001), 9.7 ng/mL human EGF recombinant protein (Invitrogen, cat. PHG0313), 23.4 microg/mL adenine (Sigma-Aldrich, cat. A2786), 97.3 U/mL penicillin-streptomycin (Invitrogen, cat. 15140122), 1.9 mM L-glutamine (Invitrogen, cat. 25030081), and 9.7 microM Y-27632 dihydrochloride (Tocris Bioscience, Bristol, United Kingdom, cat. 1254). The PDCs were cultured in complete DMEM/F12 media without 10 microM Y-27632 dihydrochloride for at least two passages prior to the screen. The established cell lines NCI-H1341 and […] were cultured in DMEM/F-12, HEPES (Invitrogen, cat. 11330032), 5% defined fetal bovine serum (HyClone Laboratories Inc., cat. SH30070.03), ITS premix universal culture supplement [insulin (5 microg/mL), transferrin (5 microg/mL), and selenious acid (5 ng/mL)] […]

[1] = second compound 0.1 µM, first compound 0.000949 µM
[2] = second compound 0.1 µM, first compound 0.003 µM
[3] = second compound 0.1 µM, first compound 0.00949 µM
[4] = second compound 0.1 µM, first compound 0.03 µM
[5] = second compound 0.1 µM, first compound 0.0949 µM
[6] = second compound 0.1 µM, first compound 0.3 µM
[7] = second compound 0.316 µM, first compound 0.000949 µM
[8] = second compound 0.316 µM, first compound 0.003 µM
[9] = second compound 0.316 µM, first compound 0.00949 µM
[10] = second compound 0.316 µM, first compound 0.03 µM
[11] = second compound 0.316 µM, first compound 0.0949 µM
[12] = second compound 0.316 µM, first compound 0.3 µM
[13] = second compound 1 µM, first compound 0.000949 µM
[14] = second compound 1 µM, first compound 0.003 µM
[15] = second compound 1 µM, first compound 0.00949 µM
[16] = second compound 1 µM, first compound 0.03 µM
[17] = second compound 1 µM, first compound 0.0949 µM
[18] = second compound 1 µM, first compound 0.3 µM
[19] = second compound 3.16 µM, first compound 0.000949 µM
[20] = second compound 3.16 µM, first compound 0.003 µM
[21] = second compound 3.16 µM, first compound 0.00949 µM
[22] = second compound 3.16 µM, first compound 0.03 µM
[23] = second compound 3.16 µM, first compound 0.0949 µM
[24] = second compound 3.16 µM, first compound 0.3 µM
[25] = second compound 10 µM, first compound 0.000949 µM
[26] = second compound 10 µM, first compound 0.003 µM
[27] = second compound 10 µM, first compound 0.00949 µM
[28] = second compound 10 µM, first compound 0.03 µM
[29] = second compound 10 µM, first compound 0.0949 µM
[30] = second compound 10 µM, first compound 0.3 µM

CCc1c2c(nc3ccc(O)cc13)-c1cc3c(c(=O)n1C2)COC(=O)[C@]3(O)CC + Cc1ccccc1N=Nc1ccc(NC(=O)c2ccnn2C)c(C)c1
IC50 (second compound 0.1 µM): 9.05 nM | IC50 (second compound 0.316 µM): 8.31 nM | IC50 (second compound 1 µM): 9.91 nM | IC50 (second compound 3.16 µM): 10.5 nM | IC50 (second compound 10 µM): 13.4 nM | viability, T/C [1]: 98.3% | viability, T/C [2]: 97.7% | viability, T/C [3]: 48% | viability, T/C [4]: 35.2% | viability, T/C [5]: 38.4% | viability, T/C [6]: 37.7% | viability, T/C [7]: 103% | viability, T/C [8]: 80.9% | viability, T/C [9]: 47% | viability, T/C [10]: 30.5% | viability, T/C [11]: 32.5% | viability, T/C [12]: 32.3% | viability, T/C [13]: 94% | viability, T/C [14]: 90.9% | viability, T/C [15]: 50.5% | viability, T/C [16]: 36.4% | viability, T/C [17]: 36.3% | viability, T/C [18]: 40.6% | viability, T/C [19]: 93.2% | viability, T/C [20]: 79.1% | viability, T/C [21]: 52.5% | viability, T/C [22]: 35.6% | viability, T/C [23]: 39.8% | viability, T/C [24]: 41.4% | viability, T/C [25]: 83.1% | viability, T/C [26]: 82.2% | viability, T/C [27]: 53.7% | viability, T/C [28]: 40.4% | viability, T/C [29]: 40.5% | viability, T/C [30]: 43.5%

Nc1ncn(C2CC(O)C(CO)S2)c(=O)n1 (stereo not given) + Cc1ccccc1N=Nc1ccc(NC(=O)c2ccnn2C)c(C)c1
IC50 (second compound 0.1 µM): > 300 nM | IC50 (second compound 0.316 µM): > 300 nM | IC50 (second compound 1 µM): > 300 nM | IC50 (second compound 3.16 µM): > 300 nM | IC50 (second compound 10 µM): > 300 nM | viability, T/C [1]: 94.1% | viability, T/C [2]: 96.7% | viability, T/C [3]: 106% | viability, T/C [4]: 101% | viability, T/C [5]: 98.6% | viability, T/C [6]: 88.6% | viability, T/C [7]: 94.9% | viability, T/C [8]: 96.3% | viability, T/C [9]: 103% | viability, T/C [10]: 105% | viability, T/C [11]: 111% | viability, T/C [12]: 95.5% | viability, T/C [13]: 101% | viability, T/C [14]: 102% | viability, T/C [15]: 99.2% | viability, T/C [16]: 105% | viability, T/C [17]: 117% | viability, T/C [18]: 98.9% | viability, T/C [19]: 113% | viability, T/C [20]: 93.4% | viability, T/C [21]: 96.9% | viability, T/C [22]: 105% | viability, T/C [23]: 91.7% | viability, T/C [24]: 91.3% | viability, T/C [25]: 99.4% | viability, T/C [26]: 97.3% | viability, T/C [27]: 92.3% | viability, T/C [28]: 94.3% | viability, T/C [29]: 91.7% | viability, T/C [30]: 74.7%
